Test results: patent US7622447B2, “Use of glutathione synthesis stimulating compounds in reducing insulin resistance” (DiaMedica Inc., priority 2002, dated 2009)
Values joined by “and” are separate entries in the source; they are usually repeats but may differ in a detail not shown here. Identical values can stand only once. “Also recorded” adds a separate entry of the source.

What was measured:
Wistar rats = assay: Rapid Insulin Sensitivity Test (RIST), euglycemic clamp, in saline and BSO (GSH-depleted) rats; format: in vivo, rat
Description: The rapid insulin sensitivity test (RIST) was employed (Lautt et al., Can. J. Physiol. Pharmacol. 76:1080 (1998)) is employed to avoid the complexity of the reaction to hypoglycemia. The RIST involves use of a euglycemic clamp following the administration of insulin and quantitation of the response as the amount of glucose required to be infused over the test period in order to hold arterial blood glucose levels constant. […] It is highly reproducible with up to five consecutive responses being obtainable in cats and four in rats with blood glucose levels returning to control levels between each test. Insulin, glucagon, and catecholamine levels remain unchanged between tests.
(§1) Summary: GSH depletion was induced in 5 week old Wistar rats using buthionine sulfoximine (BS), 2 mmol/kg bw, i.p. for 20 days. Control rats were injected with an equal volume of saline. Insulin sensitivity was measured using a euglycemic clamp, the Rapid Insulin Sensitivity Test—RIST. In both the saline group (SG) and BSO group (BG) a control RIST followed by a RIST post-L-NAME (1 mg/kg i.p.v.), a NOS competitive antagonist, and a RIST post-SIN-1 (5 mg/kg i.p.v.), a NO donor, were performed. The liver was removed for further determined of hepatic GSH content using the GSH peroxidase-reductase assay. […] The control RIST, 248.0±15.8 mg glucose/kg for SG, was impaired in the BG (158.4±12.2 mg glucose/kg; p<0.01). After L-NAME the SG RIST was 129.0±1.9 mg glucose/kg and the BG RIST was 109.0±9.1 mg glucose/kg. […] HISS action, quantified by subtracting the post L-NAME RIST from the control RIST, was 114.0±15.8 mg glucose/kg for SG and only 49.3±8.6 mg glucose/kg for BG (p<0.01). HISS dependent insulin resistance appears to be related to impaired levels of GSH in the liver, leading to a compromised HISS secretion/release.
Male Wistar rats (8 weeks) were anaesthetized with sodium pentobaribtial (65 mg/kg). Body temperature was maintained at 37±0.5 °C. An arterial-venous loop (carotid artery and internal jugular vein) was employed. A catheter was inserted into the portal vein.
RIST (Rapid Insulin Sensitivity Test): Blood samples (25 μl) for arterial glucose analysis were taken from the arterial-venous loop. A stable glucose baseline was established. Insulin (50 mU/kg i.v.) was infused over 5 minutes. Arterial blood samples were taken every 2 minutes. Glucose was adjusted to maintain euglycemia. RIST index=mg glucose/kg infused during RIST.

hepatic GSH = assay: Hepatic GSH content by GSH peroxidase-reductase assay; format: in vivo, rat
Experimental: as §1, with “Test-RIST.” for “Test—RIST.”, “post-[…]” for “post-L-NAME (1 mg/kg i.p.v.), a”, “secretion/release. […] CONTENT: […] Hepatic GSH content was decreased in 48.3±6.9% in BSO group. ***=p<0.001.” for “secretion/release.”

fasting-induced HDIR = assay: Fasting-induced HISS-dependent insulin resistance (HDIR) model, overnight fast; format: in vivo
Description: A model of low hepatic GSH and NO production is produced by overnight fasting.

hepatic glutathione = conditions: cited from earlier work
HISS = HISS action after NOS blockade; format: in vivo
cats = conditions: cited from earlier work

CCCCS(=N)(=O)CCC(N)C(=O)O (centres unmarked) [BSO, buthionine sulfoximine]
control RIST index in BSO group (Wistar rats; BSO 2 mmol/kg bw i.p. for 20 days, before L-NAME): 158.4±12.2 mg glucose/kg | decrease of HISS action (Wistar rats; BSO group compared to control group): 64.4% | HISS-independent component of insulin action (Wistar rats; BSO group versus control group): not different | HISS action (HISS-dependent component of insulin action) (Wistar rats; BSO group, control RIST minus post L-NAME RIST): 49.3±8.6 mg glucose/kg and 49.3±8.56 mg glucose/kg | reduction in hepatic GSH content (hepatic GSH; BSO group compared to saline/control group): 48.3±6.9% | hepatic GSH content (hepatic GSH; BSO group, BSO 2 mmol/kg bw i.p. for 20 days): 2.96±0.4 μmol/g fresh liver

N[C@@H](CCC(=O)N[C@@H](CS)C(=O)NCC(=O)O)C(=O)O [GSH, glutathione]
reversal of HDIR / reduction in insulin resistance by GSH alone (fasting-induced HDIR; GSH by itself): small but significant reduction in insulin resistance; also recorded: minor reversal of HDIR | insulin sensitivity / reversal of HDIR by GSH together with NO donor (fasting-induced HDIR; GSH plus NO / NO donor): Improved insulin sensitivity; also recorded: only becomes therapeutically significant after the addition of the NO donor

COC(=O)[C@@H](N)CCCNC(=N)N[N+](=O)[O-] [L-NAME]
RIST index post-L-NAME in BSO group (Wistar rats; BSO-treated rats, L-NAME 1 mg/kg intraportal): 109.0±9.1 mg glucose/kg and 109.8±9.1 mg glucose/kg | inhibition of RIST index by L-NAME (Wistar rats; control group, L-NAME 1 mg/kg i.p.v.): 52.3±5.8%

C[S+](CC[C@H](N)C(=O)O)C[C@H]1O[C@@H](n2cnc3c(N)ncnc32)[C@H](O)[C@@H]1O (some centres unmarked) [SAMe, S-adenosylmethionine]
time of peak glutathione levels (hepatic glutathione; after oral administration of SAMe): 3 to 6 h | intrahepatic glutathione after SAMe administration (hepatic glutathione; in vivo): restored to near-normal levels

[NH-]c1c[n+](N2CCOCC2)no1 [SIN-1, 3-morpholinosyndnonimine]
HISS action after NOS blockade (HISS): reverses HISS inhibition after NOS blockade | reversal of fasting induced HDIR by SIN-1 alone (fasting-induced HDIR; SIN-1 2.5 to 10 mg/kg i.p.v., overnight fast): do not reverse fasting induced HDIR | restoration of RIST index / insulin action by SIN-1 in BSO group (Wistar rats; BSO-treated rats, SIN-1 5 mg/kg i.p.v. after L-NAME, 5 mg/kg): only restored insulin action in the SG; also recorded: did not reverse the RIST index to control values | RIST index post-SIN-1 (Wistar rats; saline/control group, SIN-1 5 mg/kg i.p.v. after L-NAME, 5 mg/kg): 246.0±11.5 mg glucose/kg and 258.1±18.5 mg glucose/kg

CN1[C@@H]2CC[C@H]1C[C@@H](OC(=O)C(CO)c1ccccc1)C2 (some centres unmarked) [atropine]
hepatic glucose response (cats; arterial-venous glucose response to bolus insulin after atropine): not notably altered

COc1ccccc1CNCCCCCCNCCCCCCCCNCCCCCCNCc1ccccc1OC [methoctramine]
dose producing full / similar degree of insulin resistance (cats): 10^−6 μmol/kg

CN1CCN(CC(=O)N2c3ccccc3C(=O)Nc3cccnc32)CC1 [pirenzepine]
dose producing a similar degree of insulin resistance (cats): 10^−7 mmol/kg

Nitroprusside
HISS action after NOS blockade (HISS): not able to restore HISS action after NOS blockade
